{"source": "patent US7250397B2", "about": "“Antiarrhythmic peptides” (Zealand Pharma A/S, priority 2000, dated 2007)", "key": {"ROS 17/2.8 cells": {"system": "ROS 17/2.8 cells", "assay": "Lucifer Yellow dye transfer in ROS 17/2.8 cells", "format": "cell-based, rat", "conditions": "after 48 hours in 3-6% O2 (9 cells before)", "method": "ROS 17/2.8 cells: Cells were cultured in 100 mm dishes at 37° C. with 5% CO2 and medium change every 2-3 days. ROS medium (all reagents obtained from Life Technologies) MEM (Cat.No. 31095) supplemented with 10% heat-inactivated calf serum (Cat.No. 16170), 1% NEAA (Cat.No. 11140), 1% Sodium Pyruvate (Cat.No. 11360), 1% L-Glutamine (Cat.No. 25030) and 0.1% Penicillin/Streptomycin (Cat.No. 15140). For video imaging experiments, cells were plated on coverslips at 2-3×10^5 cells/coverslip and cultured for 2-3 days before use.\nThe cells cultured on coverslips were placed in the microscope as described above. Microinjections were performed using the Eppendorf 5171 micromanipulator and the Eppendorf Transjector 5346 system. A micropipette was loaded with a 10 mM Lucifer Yellow (LY) solution (Sigma, Cat.No. L-0259). […] The excitation light for LY was 430 nm, and images were acquired as described above.\nSimilar experiments were performed with ROS cells. Basic coupling under physiological conditions in ROS cells was 12 cells (n=19). After 48 hours incubation in 3-6% O2, a reduction in dye transfer was seen to 9 cells (n=27)."}, "human osteoblastic cells": {"system": "human osteoblastic cells", "assay": "Intercellular calcium wave propagation in human osteoblasts", "format": "cell-based", "conditions": "10^−8 M; medium without glucose (1.4 cells before); after ATP desensitization", "method": "(§1) Human osteblast cells (hOB): Cells were isolated from human bone marrow obtained by puncture of the posterior iliac spine of healthy volunteers (aged 20-36): 10-15 ml marrow material was collected in 15 ml PBS+Ca,Mg (Life Technologies, Cat.No. 14040) with 100 U/ml Heparin (Sigma, Cat.No. H-3149). The mononuclear fraction of the marrow was isolated on a Lymphoprep gradient (Nycomed Pharma, Cat.No. 1001967), by centrifugation at 2200 rpm for 30 min. After harvesting, the mononuclear fraction was washed once with culture medium and centrifuged at 1800 rpm for 10 min. Subsequently cells were counted and plated in culture medium at 8×10^6 cells/100 mm dish. hOB medium (all reagents obtained from Life Technologies): MEM w/o Phenol Red w/Glutamax (Cat.No. 041-93013) supplemented with 10% heat inactivated fetal calf serum (Cat.No. 10106) and 0.1% Penicillin/Streptomycin (Cat.No. 15140). Medium was changed the following day and the cells were cultured at 37° C. in 5%CO2 with medium change every 7 days. After 3-4 weeks of culture the cells had reached 70% confluence. The medium was then supplemented with 100 nM Dexamethasone (Sigma, Cat.No. D-4902) for 7 days. […]\nMetabolic stress induced by hypoglycemia is also known to decrease gap junctional communication. […] After ATP desensitization as described above, one single cell was stimulated mechanically, and the number of cells in the wave was recorded. […]"}, "[1]": {"system": "alkaline phosphatase (ALP) activity of human osteoblasts", "assay": "Alkaline phosphatase (ALP) assay in human osteoblasts", "format": "cell-based", "conditions": "four days; 10^−13-10^−6 M; normal culture conditions", "method": "as §1, with “confluence.” for “confluence. The medium was then supplemented with 100 nM Dexamethasone (Sigma, Cat.No. D-4902) for 7 days.”\n• Day 1: Cells were plated in 96-well plates at a conc. of 8000 cells/well (hOB) or 3000 cells/well (ROS) in 200 μl normal culture medium. • Day 2: Medium was changed on the cells. • Day 4: (Day 3 for ROS): Cells were washed with 200 μl MEM, 0.1% BSA (Sigma, Cat.No. A-9418). […] Absorbance was measured using a plate reader at 405 nm. […]"}}, "note": "Entries after “also recorded” stand apart in the source; their conditions may differ.", "data": [{"substance": "Ac-D-Tyr-D-Pro-D-4Hyp-Gly-D-Ala-Gly-NH2 [Compound 2]", "values": [{"measurement": "average dye transfer, number of cells", "setting": "ROS 17/2.8 cells", "value": 12, "unit": "cells"}, {"measurement": "average number of cells in the calcium wave", "setting": "human osteoblastic cells", "value": 2.9, "unit": "cells"}, {"measurement": "ALP activity compared to untreated controls", "setting": "[1]", "value": "increased ALP activity at most of the concentrations tested; also recorded: stimulated ALP activity"}]}]}
